The text below walks through data of patent publication US7732160B2, “Methamphetamine derivatives and conjugates for immunoassay” (Roche Diagnostics Operations, Inc., priority 2004, dated 2010).

Experiment [1] relates to monoclonal antibody specific for methamphetamine. Description: Microparticle agglutination immunoassay with conjugate (12) and methamphetamine antibody-coated particles, percent cross-reactivity. It is filed as binding. The following applies: methamphetamine antibody with conjugate (12).
Experiment [2] relates to monoclonal antibody NEAMP 48.2. Description: Microparticle agglutination immunoassay with conjugate (12) and N-ethylamphetamine antibody-coated particles, percent cross-reactivity. Format: binding. To be noted: NEAMP 48.2 antibody with conjugate (12). As to the method: The conjugate reagent was prepared as described in Example 16.
An antibody-coated microparticle was prepared as described in Example 16 using monoclonal antibody NEAMP 48.2 described in U.S. 2004/0077021. A microparticle reagent was then prepared as described in Example 16.
The assay was carried out on a Roche/Hitachi 917 analyzer as described in Example 16.
Percent cross-reactivity was determined in an ammunoassay. A standard curve was established using known amounts of the target analyte methylenedioxyethylamphetamine (MDEA). Known amounts of various amphetamine-related drugs were to be analyzed as samples in the immunoassay, and apparent concentrations of these drugs were generated from the standard curve. Apparent concentration of the drug, divided by actual concentration and multiplied by 100, is the percent cross-reactivity of this drug.

Turning to `CCC(Cc1ccc2c(c1)OCO2)NC` (centres unmarked) [MBDB, 3,4-methylenedioxyphenyl-N-methylbutanamine], the “Cross-reactivity” value in experiment [1] is “good cross-reactivity”.
Turning to `CCNC(C)Cc1ccc2c(c1)OCO2` (centres unmarked) [MDEA, 3,4-methylenedioxy-N-ethylamphetamine], the “Cross-reactivity” value in experiment [2] is “good cross-reactivity”.
Consider `CNC(C)Cc1ccc2c(c1)OCO2` (centres unmarked) [MDMA, 3,4-methylenedioxy-N-methylamphetamine], for which the “Cross-reactivity” value in experiment [1] is on record as “good cross-reactivity”.
Take `CC(C)(N)Cc1ccccc1` [Phentermine]: the “Cross-reactivity” value in experiment [2] is “essentially none”.
The same measure, in the same setting: for `NCCc1ccc(O)cc1` [Tyramine] the value was “essentially none”.
`CN[C@@H](C)Cc1ccccc1` [d-Methamphetamine]: the “Cross-reactivity” value in experiment [1] was “good cross-reactivity”.
As for `CN[C@@H](C)[C@@H](O)c1ccccc1` [d-pseudoephedrine], the “Cross-reactivity” value in experiment [2] is “essentially none”.
On to `CN[C@@H](C)[C@H](O)c1ccccc1` [l-ephedrine], for which the “Cross-reactivity” value in experiment [2] is listed as “essentially none”.
